The values that follow come from publication PMC5342483, “Nucleoside 5′-O-monophosphorothioates as modulators of the P2Y14 receptor and mast cell degranulation” (Oncotarget, 2016).

Holding throughout (assay type): cell-based
The target of assay [1] is T1, P2Y14 receptor (Homo sapiens, UniProt Q15391).
T1 construct: gene P2RY14
T1 sequence (Q15391 1-338): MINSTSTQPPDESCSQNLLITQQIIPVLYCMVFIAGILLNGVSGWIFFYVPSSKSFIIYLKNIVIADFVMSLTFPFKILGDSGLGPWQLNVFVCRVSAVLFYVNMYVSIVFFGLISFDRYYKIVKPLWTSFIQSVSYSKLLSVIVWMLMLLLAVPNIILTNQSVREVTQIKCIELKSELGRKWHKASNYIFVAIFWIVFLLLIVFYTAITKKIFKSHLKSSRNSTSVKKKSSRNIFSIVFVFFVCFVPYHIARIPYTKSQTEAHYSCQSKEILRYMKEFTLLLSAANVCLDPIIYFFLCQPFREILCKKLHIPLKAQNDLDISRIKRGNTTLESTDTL
Briefly: Agonist calcium mobilization assay (Fluo-8) in HEK293T Gαqi5 cells stably expressing human P2Y14R. The following applies: HEK-293T; read-out: CONCENTRATION / 1 μM.

Assay [2] concerns the target T1, P2Y14 receptor. Described as above. To be noted: HEK-293T; read-out: CONCENTRATION / 100 μM.
Assay [3] addresses T1, P2Y14 receptor. Nature of the assay: Antagonist calcium mobilization assay (Fluo-8) in HEK293T Gαqi5 cells stably expressing human P2Y14R; residual response to UDPG (EC80)[…] at […], […] at […]. To be noted: HEK-293T; read-out: CONCENTRATION / 1000 μM.

On to `O=c1ccn([C@@H]2O[C@H](COP(O)(O)=S)[C@@H](O)[C@H]2O)c(=O)[nH]1` [UMPS, uridine 5'-O-monophosphorothioate], for which, on P2Y14 receptor [1], the activation at 1 µM was determined as 84.5 ± 5.34%.

With `Nc1ccn([C@@H]2O[C@H](COP(O)(O)=S)[C@@H](O)[C@H]2O)c(=O)n1` [CMPS, cytidine 5'-O-monophosphorothioate], the activation at 100 µM at P2Y14 receptor [2] was determined as 77.5 ± 4.4%.

As for `Nc1ncnc2c1ncn2[C@@H]1O[C@H](COP(O)(O)=S)[C@@H](O)[C@H]1O` [AMPS, adenosine 5'-O-monophosphorothioate], on P2Y14 receptor [2], the activation at 100 µM amounted to 84.4 ± 17.6%.

With `Cc1cn([C@H]2C[C@H](O)[C@@H](COP(O)(O)=S)O2)c(=O)[nH]c1=O` [TMPS, thymidine 5'-O-monophosphorothioate], the activity at 1000 µM on P2Y14 receptor [3] was determined as 17.3 ± 52.9%.
